Assay results: ChEMBL document CHEMBL4257489, “Recent updates in the discovery and development of novel antimalarial drug candidates” (Medchemcomm, 2018)

Columns and labels:
[1] = Oral bioavailability in CD1 mouse at 10 mg/kg; assay type: ADME, organism-based; settings: in vivo
[2] = Half life in CD1 mouse at 2.5 mg/kg, iv; assay type: ADME, organism-based; settings: in vivo
Plasmodium berghei [3] = assay: Antimalarial activity against Plasmodium berghei infected in po dosed mouse measured after 3 doses by 4 day peter's test; assay type: functional; settings: 96 h
Plasmodium berghei [4] = assay: Antimalarial activity against Plasmodium berghei infected in mouse assessed as cure rate at 30 mg/kg, po relative to control; assay type: functional
Plasmodium berghei [5] = assay: Antimalarial activity against Plasmodium berghei infected in mouse by Thompson test; assay type: functional
Plasmodium falciparum = assay: Antimalarial activity against Plasmodium falciparum 3D7 0087/N9 in NODscid IL-2Rgammanull mouse engrafted with parasite infected human erythrocytes assessed as reduction in parasitemia administered via oral gavage starting from day 3 to day 6 post infection measured every 24 hrs during compound dosing by flow cytometric method; assay type: functional; settings: 3D7 0087/N9, po
Plasmodium berghei [6] = assay: Antimalarial activity against GFP transfected Plasmodium berghei in ICR mouse engrafted with parasite infected erythrocytes assessed as reduction in parasitemia administered as po qd for 3 to 5 days post infection measured on day 3 to 30 by Giemsa staining-based microscopic method; assay type: functional
[7] = Oral bioavailability in mouse at 15 mg/kg; assay type: ADME, organism-based; settings: in vivo
[8] = Oral bioavailability in Sprague-Dawley rat at 20 +/- 0.2 mg/kg administered via gavage as solution; assay type: ADME, organism-based; settings: in vivo
[9] = Oral bioavailability in Sprague-Dawley rat at 17 +/- 0.2 mg/kg administered via gavage as suspension; assay type: ADME, organism-based; settings: in vivo
[10] = Oral bioavailability in beagle dog at 3 mg/kg; assay type: ADME, organism-based, Canis lupus familiaris; settings: in vivo
[11] = Oral bioavailability in beagle dog at 30 mg/kg; assay type: ADME, organism-based, Canis lupus familiaris; settings: in vivo
[12] = Oral bioavailability in Sprague-Dawley rat at 10 mg/kg administered via gavage; assay type: ADME, organism-based; settings: in vivo
hERG = assay: Selectivity index, ratio of IC50 for human ERG to IC50 for Plasmodium falciparum NF54; assay type: toxicity; settings: read-out: Ratio IC50
[13] = tested on: acetylcholinesterase (AChE); assay: Selectivity index, ratio of IC50 for human AchE to IC50 for Plasmodium falciparum NF54; assay type: toxicity; settings: read-out: Ratio IC50
[14] = Oral bioavailability in rat; assay type: ADME, organism-based; settings: in vivo
Plasmodium berghei [15] = assay: Antimalarial activity against GFP transfected Plasmodium berghei ANKA infected in NMRI mouse assessed as suppression of parasitemia at 100 mg/kg, po administered at 4, 24, 48, 72 hrs post infection measured at 96 hrs post infection by FACS analysis relative to control; assay type: functional
Plasmodium berghei [16] = assay: Antimalarial activity against GFP-fused Plasmodium berghei ANKA infected in NMRI mouse assessed as mouse survival at 100 mg/kg, po administered at 4, 24, 48, 72 hrs post infection; assay type: functional
[17] = Oral bioavailability in C57BL/6 mouse at 100 mg/kg; assay type: ADME, organism-based; settings: in vivo

Molecule `COc1ccc(NC(=O)N2CCCCN3[C@H](CN(C)C)[C@H](c4ccc(C#Cc5ccccc5)cc4)[C@@H]3C2)cc1` has a bioavailability [1] of 80% and a half-life [2] of 32 h.

`FC1CCN(CCOc2ccc(C3CCC4(CC3)OOC3(OO4)C4CC5CC(C4)CC3C5)cc2)CC1` (centres undefined) showed an ED50 (Plasmodium berghei [3]) of 4 mg/kg and an Activity (Plasmodium berghei [4]) of 66%.

In the case of `COc1cc2[nH]c(C)c(-c3ccc(Oc4ccc(OC(F)(F)F)cc4)cc3)c(=O)c2cc1Cl`, the ED50 (Plasmodium berghei [5]) is reported as 0.016 mg/kg.

For `N#Cc1cc(NC(=O)[C@H]2c3ccccc3C(=O)N(CC(F)(F)F)[C@@H]2c2cccnc2)ccc1F` [SJ-733], the ED50 (Plasmodium falciparum) was < 5 mg/kg, the ED50 (Plasmodium berghei [6]) was < 5 mg/kg and the bioavailability [7] was > 30%. The bioavailability [8] was > 30%, the bioavailability [9] was > 30% and the bioavailability [10] was > 30%. For the same molecule, the bioavailability [11] was > 30%.

With `CC1(C)N=C(N)N=C(N)N1OCCCOc1cc(Cl)c(Cl)cc1Cl` the bioavailability [12] was < 1%.

For `Cc1nc(Nc2ncc(N3CCN(C)[C@H](C)C3)c(Nc3cc(C)n(C)n3)n2)cc(C2CC2)c1F` [SUTIDIAZINE], the selectivity ratio (hERG) was > 1000, the selectivity ratio [13] was > 1000 and the bioavailability [14] was 80%.

With `COc1ccc2c(c1)CC[C@@H]1[C@@H]2CC[C@]2(C)[C@H](NCc3cc4ccccc4cc3O)CC[C@@H]12` the Activity (Plasmodium berghei [15]) was 99.8%, the Survival (Plasmodium berghei [16]) was 27 days and the bioavailability [17] was < 5%.
